Data published in patent publication US20220402925A1, “COMPOUNDS AND METHODS FOR THE TREATMENT OF CYSTIC FIBROSIS” (Flatley Discovery Lab, LLC, priority 2019, published 2022).

Experiments:
F508del CFTR [1] = target: T1, F508del CFTR (Homo sapiens, UniProt P13569, DEL508-508); assay: CoPo (corrector plus potentiator) equivalent current assay in primary CF airway epithelial cells, test compound added back as potentiator, no VX-770; format: cell-based; design: key: +++: NAUC>70% of positive control; ++: NAUC 70-40% of positive control; +: NAUC<40% of positive control; O: no positive response; settings: CoPo as % of positive control (VX-809 + acute VX-770)
T1 construct: Primary CF airway epithelial cells were obtained from the UNC Cystic Fibrosis Tissue Procurement and Cell Culture Core; host or cells: primary CF airway epithelial cells
Method: It was noticed that many of the test compounds had potentiator activity in addition to corrector activity. These compounds have been denoted as CoPos by FDL and others. To measure both the corrector and potentiator activity of a compound the following changes were made to the test conditions. Cells were treated as usual with the test compounds for at least 24 hours before the experiment. 30 minutes prior to the experiment the test compound is added back to the testing solution to act as a potentiator and no VX-770 (the standard CFTR potentiator) was used with the test compound. The negative control was no longer just DMSO (no corrector) but changed to VX-809 (the standard corrector) plus VX-770 treatment for at least 24 hours. 30 minutes prior to the experiment both VX-809 and VX-770 were added back to the testing solution. This treatment led to a smaller response than the positive control of correcting F508del CFTR with VX-809 alone for at least 24 hours and adding VX-770 acutely with the forskolin addition (just as in the corrector assay).
A CoPo reading of zero means that the test compound has the same forskolin stimulated response as VX-809+VX-770 treatment for 24 hours. A CoPo reading of 1.0 means the test compound has the same forskolin response as cell treated with VX-809 and stimulated with forskolin+VX-770. CoPo activity “+++” refers to an observed CoPo>70% of positive control; CoPo activity “++” refers to an observed CoPo 70-40% of positive control; CoPo activity “+” refers to an observed CoPo<40% of positive control and “O” refers to no positive response.

F508del CFTR [2] = target: T1, F508del CFTR; assay: Equivalent current assay in primary CF airway epithelial cells (Corrector Activity, NAUC normalized to 3 μM VX809); format: cell-based; settings: NAUC as % of positive control (VX-809)
How it was run: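 Differentiated primary CF airway cells treated basolaterally 24 h at 37° C with compound (0.1% DMSO). Equivalent current recorded after 5 μM benzamil, stimulation with 10 μM forskolin plus 1 μM VX-770 or 3 μM FDL176, and block by 20 μM CFTR-172; vehicle-subtracted AUC normalized to 3 μM VX809; EC50 from sigmoid fit, Hill slope 1.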

T1 sequence (P13569 with tags, fused parts or gaps DEL508-508): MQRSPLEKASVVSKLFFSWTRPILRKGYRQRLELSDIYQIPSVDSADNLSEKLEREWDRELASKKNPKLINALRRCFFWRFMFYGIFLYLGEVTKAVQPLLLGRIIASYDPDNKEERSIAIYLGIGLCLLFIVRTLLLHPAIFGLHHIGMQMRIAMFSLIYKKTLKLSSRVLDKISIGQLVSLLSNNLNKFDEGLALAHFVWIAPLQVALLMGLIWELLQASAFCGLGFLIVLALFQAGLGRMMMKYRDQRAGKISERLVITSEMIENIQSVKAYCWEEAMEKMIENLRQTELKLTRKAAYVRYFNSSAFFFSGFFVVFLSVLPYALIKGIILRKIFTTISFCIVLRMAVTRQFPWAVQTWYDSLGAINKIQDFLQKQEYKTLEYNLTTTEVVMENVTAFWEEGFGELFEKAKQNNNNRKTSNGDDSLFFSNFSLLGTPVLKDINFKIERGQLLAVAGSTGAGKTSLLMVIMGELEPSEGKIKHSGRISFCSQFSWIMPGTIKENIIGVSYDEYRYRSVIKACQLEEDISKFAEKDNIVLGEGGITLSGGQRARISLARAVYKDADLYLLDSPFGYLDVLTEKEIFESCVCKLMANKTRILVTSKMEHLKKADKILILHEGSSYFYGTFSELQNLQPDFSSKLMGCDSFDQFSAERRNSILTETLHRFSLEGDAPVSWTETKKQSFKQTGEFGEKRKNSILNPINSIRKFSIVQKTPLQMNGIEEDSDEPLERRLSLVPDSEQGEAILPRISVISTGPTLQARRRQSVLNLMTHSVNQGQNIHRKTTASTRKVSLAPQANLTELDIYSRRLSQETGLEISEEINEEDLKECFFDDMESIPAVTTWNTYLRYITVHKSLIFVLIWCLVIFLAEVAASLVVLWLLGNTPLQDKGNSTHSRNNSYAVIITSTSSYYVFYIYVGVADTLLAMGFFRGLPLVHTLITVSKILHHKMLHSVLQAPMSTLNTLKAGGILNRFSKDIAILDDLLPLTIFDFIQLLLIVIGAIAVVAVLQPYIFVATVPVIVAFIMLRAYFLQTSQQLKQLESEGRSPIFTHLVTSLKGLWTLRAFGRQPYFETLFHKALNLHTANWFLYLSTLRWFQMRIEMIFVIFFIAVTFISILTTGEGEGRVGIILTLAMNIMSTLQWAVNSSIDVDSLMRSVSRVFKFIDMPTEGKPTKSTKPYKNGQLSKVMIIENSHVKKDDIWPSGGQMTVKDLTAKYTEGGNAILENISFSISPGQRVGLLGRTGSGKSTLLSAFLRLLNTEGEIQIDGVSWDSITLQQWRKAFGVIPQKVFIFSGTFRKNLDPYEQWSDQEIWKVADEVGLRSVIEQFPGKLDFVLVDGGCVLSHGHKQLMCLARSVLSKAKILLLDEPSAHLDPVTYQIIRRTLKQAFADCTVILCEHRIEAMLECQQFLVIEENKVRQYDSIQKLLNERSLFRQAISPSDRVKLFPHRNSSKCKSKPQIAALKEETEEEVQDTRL

| CoPo Activity (F508del CFTR [1]) | Corr Activity (NAUC) (F508del CFTR [2]) | Compound |
| --- | --- | --- |
| ++ (CoPo 70-40% of positive control) | +++ (NAUC>70% of positive control) | CN(C(=O)Cn1nc(-c2cccc(F)c2)c2occc2c1=O)c1ccc2c(c1)OC(F)(F)O2 [Example 8] |
| +++ (CoPo>70% of positive control) | +++ (NAUC>70% of positive control) | CN(C(=O)Cn1nc(-c2cccc(Cl)c2)c2occc2c1=O)c1ccc2c(c1)OC(F)(F)O2 [Example 9] |
| +++ (CoPo>70% of positive control) | +++ (NAUC>70% of positive control) | CCN(C(=O)Cn1nc(-c2cccc(C#N)c2)c2occc2c1=O)c1ccc2c(c1)OC(F)(F)O2 [Example 10] |
| +++ (CoPo>70% of positive control) | +++ (NAUC>70% of positive control) | CN(C(=O)Cn1nc(-c2cccc(C#N)c2)c2occc2c1=O)c1ccc2c(c1)OC(F)(F)O2 [Example 11] |
| +++ (CoPo>70% of positive control) | +++ (NAUC>70% of positive control) | CCN(C(=O)Cn1nc(-c2cccc(C#N)c2)c2occc2c1=O)c1ccc2c(c1)CCC2 [Example 12] |
| O | + (NAUC<40% of positive control) | CN(C(=O)Cn1nc(-c2cccc(F)c2)c2nc[nH]c2c1=O)c1ccc2c(c1)OC(F)(F)O2 [Example 21] |
| O | ++ (NAUC 70-40% of positive control) | CN(C(=O)Cn1nc(-c2cccc(Cl)c2)c2[nH]cnc2c1=O)c1ccc2c(c1)OC(F)(F)O2 [Example 22] |
| + (CoPo<40% of positive control) | + (NAUC<40% of positive control) | CN(C(=O)Cn1nc(-c2cccc(C#N)c2)c2[nH]cnc2c1=O)c1ccc2c(c1)OC(F)(F)O2 [Example 23] |
| +++ (CoPo>70% of positive control) | +++ (NAUC>70% of positive control) | CCN(C(=O)Cn1nc(-c2cccc(C#N)c2)c2[nH]cnc2c1=O)c1ccc2c(c1)OC(F)(F)O2 [Example 24] |
| + (CoPo<40% of positive control) | +++ (NAUC>70% of positive control) | CCN(C(=O)Cn1nc(-c2cccc(F)c2)c2[nH]cnc2c1=O)c1ccc2c(c1)OC(F)(F)O2 [Example 25] |
| + (CoPo<40% of positive control) | ++ (NAUC 70-40% of positive control) | CN(C(=O)Cn1nc(-c2cccc(F)c2)c2c(c1=O)CCO2)c1ccc2c(c1)OC(F)(F)O2 [Example 160] |
| ++ (CoPo 70-40% of positive control) | +++ (NAUC>70% of positive control) | CCN(C(=O)Cn1nc(-c2cccc(F)c2)c2c(c1=O)CCO2)c1ccc2c(c1)OC(F)(F)O2 [Example 161] |
